The source of these data is patent US9079880B2, “Rho kinase inhibitors” (Boehringer Ingelheim International GmbH, priority 2010, dated 2015).

In assay [1] the target is T1, ROCKII (1-543) (Homo sapiens (Human), UniProt O75116). Description: Luciferin-Luciferase Assay (PKLight ATP detection). The assay is classed as biochemical. The settings on record: 750 nM ATP, 500 nM peptide, 7.5 nM kinase. The method, then:
1. Luciferin-Luciferase Assay
The activity of ROCKII (1-543) kinase was measured utilizing Cambrex PKLight ATP Detection Reagent, a homogeneous assay technology using luciferin-luciferase to quantify residual ATP. The assay was performed in 384-well low-volume, white, non-binding surface microtiter plates (Corning). The assay buffer was 25 mM HEPES, pH 7.5, 10 mM MgCl2, 50 mM KCl, 0.2% BSA, 0.01% CHAPS, 100 μM Na3VO4 and 0.5 mM DTT. Test compounds, dissolved in neat DMSO at 500 μg/mL, were serially diluted for dose response for a final starting concentration of 3 μg/mL in 1% DMSO of assay buffer. ROCKII (1-543) (62,408Da) was diluted in assay buffer to a final concentration of 7.5 nM in a total volume of 15 μL. Positive controls were reaction mixtures containing no test compound; negative controls (blanks) were reaction mixtures containing no kinase. After 15 minutes of pre-incubation of the test compounds with the kinase, a mixture of ATP and peptide substrate ([…]) in assay buffer was added to each well for a final concentration of 750 nM ATP and 500 nM peptide, respectively. After 90 minutes of incubation of the kinase reaction at 28° C. temperature, 10 μL of PKLight ATP Detection Reagent (warmed to room temperature previously) was added to each well. The assay plate was incubated at room temperature for additional 15 minutes and then read on an Analyst in luminescence mode. Dose-response experiments for each of the test compounds were conducted in quadruplet. IC50 values of test compounds represent 50% response of the positive control from the dose-response curve.
Target sequence in this assay (O75116 1-543): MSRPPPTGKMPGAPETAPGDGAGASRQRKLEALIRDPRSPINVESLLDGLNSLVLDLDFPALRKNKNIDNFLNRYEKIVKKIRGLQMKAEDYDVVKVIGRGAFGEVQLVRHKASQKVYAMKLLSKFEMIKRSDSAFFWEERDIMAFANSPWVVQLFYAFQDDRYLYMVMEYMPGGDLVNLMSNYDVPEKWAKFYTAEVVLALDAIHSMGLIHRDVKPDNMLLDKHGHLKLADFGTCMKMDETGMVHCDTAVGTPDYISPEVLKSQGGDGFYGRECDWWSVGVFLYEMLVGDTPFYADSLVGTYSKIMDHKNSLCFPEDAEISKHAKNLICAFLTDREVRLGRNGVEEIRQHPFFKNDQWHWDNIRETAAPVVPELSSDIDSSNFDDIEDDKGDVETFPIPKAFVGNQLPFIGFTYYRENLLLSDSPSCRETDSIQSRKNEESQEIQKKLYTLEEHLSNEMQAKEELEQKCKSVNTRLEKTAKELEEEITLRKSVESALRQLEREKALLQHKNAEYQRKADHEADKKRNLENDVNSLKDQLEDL

The target in assay [2] is T1, ROCKII (1-543). Description: IMAP Assay (fluorescence polarization, FAM S6 peptide). The assay is classed as biochemical. The settings on record: 100 μM ATP, 200 nM FAM S6 peptide, 1 nM kinase; read-out: Assay 2 IC50. As to the method:
This assay is performed using FAM S6 substrate peptide (Catalogue #R7184) and IMAP FP Screening Express Kit detection reagents from Molecular Devices (Sunnyvale, Calif.) in IMAP kinase reaction buffer (Tris-HCl, pH 7.2, 10 mM MgCl2, 0.05% NaN3, 0.1% phosphate-free BSA) containing 1 mM DTT. Test compounds dissolved in neat DMSO at 0.3 mg/mL are serially diluted 1 to 3 for concentration response in 100% DMSO. The DMSO serial dilutions are further diluted 33.33-fold in kinase reaction buffer, and 10 μL of this buffer dilution is transferred to Corning black 96-well half area NBS plates for a final top concentration of 3 μg/mL in 1% DMSO. 10 μL aliquot of 3 nM ROCKII (1-543) diluted in kinase reaction buffer is added to each assay well for a final concentration of 1 nM kinase. 10 μL of a mixture of 600 nM FAM S6 peptide and 300 μM ATP diluted in kinase reaction buffer is added to each well for a final concentration of 200 nM peptide and 100 μM ATP. The kinase reaction mixture is incubated for 60 minutes at room temperature. Positive controls are reaction mixtures containing no test compound and negative controls (blanks) are reaction mixtures containing no kinase. The kinase reaction is stopped by addition of 60 μL IMAP progressive binding reagent (Catalog #R7284) diluted 400-fold in 1× Binding buffer A. After 30 min of incubation at room temperature, the plates are read for fluorescence polarization on Analyst Plate Reader using Ex 485 nm, Em 530 nm, and FL 505 dichroic mirror. The mP signals are converted to percent of control (POC) values using the formula: POC=100*(Signal−BCTRL)÷(PCTRL−BCTRL)
Where Signal is the test well signal, BCTRL is the average of background (negative control) well signals on the plate and PCTRL is the average of positive control well signals on the plate. For the concentration-responsive compounds, POC as a function of test compound concentration is fitted to a 4-parameter logistic equation of the form: Y=A+(B−A)/[1+(x/C)D] Where A, B, C, and D are fitted parameters (parameter B is fixed at zero POC), and x and y are the independent and dependent variables, respectively. The IC50 is determined as the inflection point parameter, C.
Target sequence in this assay (O75116 1-543, species assumed): as the sequence (O75116 1-543) above

pIC50: −log10 of the molar value.

At ROCKII (1-543) [1], `COc1ccc(C(=O)N[C@@H](c2cccc(C(=O)Nc3nc4c(s3)CN(C)CC4)c2)C2CC2)cc1Cl` [Compound 2] showed a pIC50 of 8.55.
On the same count and under the same terms, the result for `CCCC[C@@H](NC(=O)Nc1cccc(C#N)c1)c1cccc(C(=O)Nc2nc3c(s2)CN(C)CC3)c1` [Compound 4] reads 7.65.
Molecule `CN1CCc2nc(NC(=O)c3cccc(N4CCC[C@@H]4C(=O)Nc4ccc(C#N)cc4)c3)sc2C1` [Compound 5, (R)-1-[3-(5-methyl-4,5,6,7-tetrahydro-thiazolo[5,4-c]pyridin-2-ylcarbamoyl)-phenyl]-pyrrolidine-2-carboxylic acid (4-cyano-phenyl)-amide] showed a pIC50 on ROCKII (1-543) [1] of 7.72.
The same measure, in the same setting: the result for `CCCC[C@@H](NC(=O)c1ccc(OC)c(Cl)c1)c1cccc(C(=O)Nc2nc3c(s2)CN(C)CC3)c1` [Compound 8] reads 7.42.
For `CC[C@@H](NC(=O)Nc1cccc(C#N)c1)c1cccc(C(=O)Nc2nc3c(s2)CN(C)CC3)c1` [Compound 10], the pIC50 against ROCKII (1-543) [1] is 8.24.
Consider `CC[C@@H](NC(=O)Nc1ccc(C#N)cc1)c1cccc(C(=O)Nc2nc3c(s2)CN(C)CC3)c1` [Compound 12], for which the pIC50 against ROCKII (1-543) [1] is 7.64.
Same read-out and setting: as for `CC[C@@H](NC(=O)c1ccc(OC)c(Cl)c1)c1cccc(C(=O)Nc2nc3c(s2)CN(C)CC3)c1` [Compound 14], the figure is 8.42.
`CN1CCc2nc(NC(=O)c3cccc([C@H]4CNC[C@@H]4C(=O)Nc4ccc(C#N)cc4)c3)sc2C1` [Compound 15] gave a pIC50 against ROCKII (1-543) [1] of 7.67.
For the molecule `C[C@@H](Oc1cccc(C(=O)Nc2nc3c(s2)CN(C)CC3)c1)C(=O)Nc1ccc(C#N)cc1` [Compound 19, 3-[(R)-1-(4-cyano-phenylcarbamoyl)-ethoxy]-N-(5-methyl-4,5,6,7-tetrahydro-thiazolo[5,4-c]pyridin-2-yl)-benzamide], the pIC50 on ROCKII (1-543) [1] was 7.46.
Still for that read-out and setting: as for `CN1CCc2nc(NC(=O)c3cccc(N4CCC[C@@H]4C(=O)Nc4cccc(C#N)c4)c3)sc2C1` [Compound 21], the figure is 7.02.
With `CN1CCc2nc(NC(=O)c3cccc(OCC(=O)Nc4ccc5[nH]ncc5c4)c3)sc2C1` [Compound 23], the pIC50 at ROCKII (1-543) [2] was 9.10.
On to `Cc1nc(-c2ccncc2)sc1C(=O)N1CCC[C@@H]1c1cccc(C(=O)Nc2nc3c(s2)CN(C)CC3)c1` [Compound 24], for which the pIC50 on ROCKII (1-543) [1] is 7.90.
The same measure, in the same setting: the result for `Cc1c(C(=O)N2CCC[C@@H]2c2cccc(C(=O)Nc3nc4c(s3)CN(C)CC4)c2)nnn1-c1nonc1N` [Compound 30] reads 7.48.
As to `CN(C)[C@H]1CCc2nc(NC(=O)c3cccc([C@H]4CCCN4C(=O)Nc4cccc(C#N)c4)c3)sc2C1` [Compound 37], the pIC50 at ROCKII (1-543) [2] was 9.52.
`CN1CCc2nc(NC(=O)c3cccc([C@H]4CCCN4C(=O)Nc4ccc(C#N)cc4)c3)sc2C1` [Compound 38] showed a pIC50 at ROCKII (1-543) [1] of 7.82.
`N#Cc1cccc(NC(=O)N2CCCC2c2cccc(C(=O)Nc3ccc4c(c3)CNCC4)c2)c1` (stereo not shown) [Compound 47, 2-[3-(1,2,3,4-tetrahydro-isoquinolin-7-ylcarbamoyl)-phenyl]-pyrrolidine-1-carboxylic acid (3-cyano-phenyl)-amide trifluoroacetic acid] gave a negative logarithm of the IC50 (pIC50) against ROCKII (1-543) [1] of 7.75.
For the molecule `N#Cc1cccc(NC(=O)N2CCC[C@@H]2c2cccc(C(=O)Nc3ccc4c(c3)CNCC4)c2)c1` [Compound 53], on ROCKII (1-543) [1], the pIC50 was 7.94.
On the same count and under the same terms, the result for `CN1CCc2nc(NC(=O)c3cccc(C4CCCN4C(=O)Nc4cccc(C#N)c4)c3)sc2C1` (stereo not shown) [Compound 55] reads 8.06; that for `N#Cc1cccc(NC(=O)N2CCCC2c2cccc(C(=O)Nc3nc4c(s3)CN(Cc3ccccc3)CC4)c2)c1` (stereo not shown) [Compound 57], 7.68; that for `CN1CCc2ccc(NC(=O)c3cccc(C4CCCN4C(=O)Nc4cccc(C#N)c4)c3)cc2C1` (stereo not shown) [Compound 59], 7.65.
Still for that read-out and setting: as for `CN1CCc2nc(NC(=O)c3cccc(C4CCCN4C(=O)Nc4ccc(C#N)cc4)c3)sc2C1` (stereo not shown) [Compound 61], the figure is 7.13.
Same read-out and setting: the result for `CN1CCc2nc(NC(=O)c3cccc(C4CCCN4C(=O)Nc4ccc(C(N)=O)cc4)c3)sc2C1` (stereo not shown) [Compound 77] reads 8.27; that for `C[C@@H](NC(=O)Nc1cccc(C#N)c1)c1cccc(C(=O)Nc2nc3c(s2)CN(C)CC3)c1` [Compound 81], 8.26.
On to `N#Cc1ccn2cc(C(=O)N3CCC[C@@H]3c3cccc(C(=O)Nc4nc5c(s4)C[C@@H](N4CCOCC4)CC5)c3)nc2c1` [Compound 82], for which, on ROCKII (1-543) [2], the pIC50 is 8.77.
The molecule `C[C@H](NC(=O)Nc1ccc(C#N)cc1)c1cccc(C(=O)Nc2nc3c(s2)CN(C)CC3)c1` [Compound 83] showed a pIC50 at ROCKII (1-543) [1] of 7.42.
`CN1CCc2nc(NC(=O)c3cccc([C@H]4CCCN4C(=O)c4ccc5[nH]c(=O)ccc5c4)c3)sc2C1` [Compound 84]: at ROCKII (1-543) [1], the pIC50 was 7.68.
Take `C[C@@H](NC(=O)Nc1ccc(C#N)cc1)c1cccc(C(=O)Nc2nc3c(s2)CN(C)CC3)c1` [Compound 85]: at ROCKII (1-543) [1], the pIC50 is 7.65.
`CN1CCc2nc(NC(=O)c3cccc([C@H]4CCCN4C(=O)c4ccc(-c5cc[nH]n5)cc4)c3)sc2C1` [Compound 86] gave a pIC50 against ROCKII (1-543) [1] of 7.35.
For `CN(C)[C@H]1CCc2nc(NC(=O)c3cccc([C@H]4CCCN4C(=O)c4ccc(-c5ccncc5)cc4)c3)sc2C1` [Compound 88], the pIC50 on ROCKII (1-543) [2] is 8.42.
For `N#Cc1cccc(NC(=O)N2CCC[C@@H]2c2cccc(C(=O)Nc3nc4c(s3)CN(Cc3ccccc3)CC4)c2)c1` [Compound 105], the pIC50 on ROCKII (1-543) [1] is 7.90.
In turn, `CN1CCc2ccc(NC(=O)c3cccc([C@H]4CCCN4C(=O)Nc4cccc(C#N)c4)c3)cc2C1` [Compound 109] gave a pIC50 on ROCKII (1-543) [1] of 8.02.
Still for that read-out and setting: the result for `CN1CCc2nc(NC(=O)c3cccc(C4CCCCN4C(=O)Nc4cccc(C#N)c4)c3)sc2C1` (stereo not shown) [Compound 111] reads 7.41.
Consider `CN1CCc2nc(NC(=O)c3cccc(C4CCCN(C(=O)Nc5cccc(C#N)c5)C4)c3)sc2C1` (stereo not shown) [Compound 115], for which, on ROCKII (1-543) [1], the pIC50 is 7.11.
`CN1CCc2nc(NC(=O)c3cccc(C4CCCCN4C(=O)Nc4ccc(C#N)cc4)c3)sc2C1` (stereo not shown) [Compound 117] had a negative logarithm of the IC50 (pIC50) on ROCKII (1-543) [1] of 7.73.
On the same count and under the same terms, the result for `COc1ccc(C(=O)N[C@H](C)c2cccc(C(=O)Nc3ccc4c(c3)CN(C)CC4)c2)cc1OC` [Compound 141] reads 8.05.
On to `COc1ccc(C(=O)N[C@H](C)c2cccc(C(=O)Nc3ccc4c(c3)CN(C)CC4)c2)cc1Cl` [Compound 143], for which the negative-log IC50 (pIC50) against ROCKII (1-543) [1] is 7.85.
Still for that read-out and setting: as for `COc1ccc(C(=O)N[C@H](C)c2cccc(C(=O)Nc3ccc4c(c3)CN(C)CC4)c2)cc1C` [Compound 145], the figure is 7.98; as for `C[C@@H](NC(=O)Nc1cccc(C#N)c1)c1cccc(C(=O)Nc2ccc3c(c2)CN(C)CC3)c1` [Compound 147], 7.72.
On the same count and under the same terms, the result for `C[C@@H](NC(=O)Nc1ccc(C#N)cc1)c1cccc(C(=O)Nc2ccc3c(c2)CN(C)CC3)c1` [Compound 149] reads 7.24; that for `CN1CCc2nc(NC(=O)c3cccc([C@H]4CCCN4C(=O)c4cn5cc(C#N)ccc5n4)c3)sc2C1` [Compound 150], 7.59.
The same measure, in the same setting: as for `C[C@@H](NC(=O)Nc1ccc(C(N)=O)cc1)c1cccc(C(=O)Nc2ccc3c(c2)CN(C)CC3)c1` [Compound 153], the figure is 8.02.
Consider `CN1CCc2nc(NC(=O)c3cccc([C@H](NC(=O)Nc4cccc(C#N)c4)C4CC4)c3)sc2C1` [Compound 155], for which the negative-log IC50 (pIC50) at ROCKII (1-543) [1] was 8.01.
On the same count and under the same terms, the result for `CN1CCc2nc(NC(=O)c3cccc([C@H](NC(=O)Nc4ccc(C#N)cc4)C4CC4)c3)sc2C1` [Compound 157] reads 7.34.

For orientation: pIC50 means the negative decadic logarithm of the IC50, by convention in mol/L.
